# Read-outs that look alike come from different tables or passages of the source.
# Key:
# Type in all cases: binding
# [1] = molecular target: T1, receptors in rat forebrain (mainly α4β2) (Rattus norvegicus, UniProt P09483+P12390); conditions: Table 6, [3H]-EB 0.099 nM, 0.091 nM, n = 1
# T1 construct: from tissue; host or cells: rat forebrain homogenate
# [2] = molecular target: T1, receptors in rat forebrain (mainly α4β2); assay: biochemical
# Excerpt: (§1) In order to assess the steric and hydropathic effects of the C-5 substituents of the pyridine on the binding affinity and subtype-selectivity at neuronal nicotinic acetylcholine receptors. […] The binding affinity ratios for a ligand, calculated from its affinities at an α subunit paired with either the β2 osubunit or the β4 subunit, represents a measure of the selectivity of that ligand with regard to the β subunits.
# (§2) In Vitro Inhibition of ^3H-Epibatidin Binding
# (§3) The high affinity binding site for ^3H-epibatidin is most certainly binding to the α4β2 subtype of nicotinic receptors. The identity of the low affinity site is still believed to be unknown.
# (§4) Tissue preparation: Preparations may be performed at 0-4° C. unless otherwise indicated. […] The tissue suspension may then be centrifuged at 27,000×g for 10 min. The supernatant is then discarded and the pellet may then be washed three times by centrifugation at 27,000×g for 10 min in 20 mL fresh buffer, and the final pellet may be resuspended in fresh buffer (400 mL per g of original tissue) and used for binding assays.
# (§5) Assay: Aliquots of 2.0 mL homogenate may be added to 0.100 mL of test solution and 0.100 mL of ^3H-epibatidin (0.3 nM, final concentration), mixed and incubated for 60 min at room temperature. […] The amount of radioactivity on the filters may be determined by conventional liquid scintillation counting. Specific binding is total binding minus non-specific binding.
# α3β4 nAChR subtype = molecular target: T2, α3β4 nAChR subtype (Rattus norvegicus, UniProt P04757+P12392); assay: biochemical
# T2 construct: expressed in transfected cells
# Excerpt: as §1
# α4β4 nAChR subtype = molecular target: T3, α4β4 nAChR subtype (Rattus norvegicus, UniProt P09483+P12392); assay: biochemical
# T3 construct: expressed in transfected cells
# Excerpt: as §1
# α4β2 nAChR subtype = molecular target: T4, α4β2 nAChR subtype (Rattus norvegicus, UniProt P09483+P12390); assay: biochemical
# T4 construct: expressed in transfected cells
# Excerpt: as §1
# α2β4 nAChR subtype = molecular target: T5, α2β4 nAChR subtype (Rattus norvegicus, UniProt P12389+P12392); assay: biochemical
# T5 construct: expressed in transfected cells
# Excerpt: as §1
# α2β2 nAChR subtype = molecular target: T6, α2β2 nAChR subtype (Rattus norvegicus, UniProt P12389+P12390); assay: biochemical
# T6 construct: expressed in transfected cells
# Excerpt: as §1
# α3β2 nAChR subtype = molecular target: T7, α3β2 nAChR subtype (Rattus norvegicus, UniProt P04757+P12390); assay: biochemical
# T7 construct: expressed in transfected cells
# Excerpt: as §1
# [3] = system: receptors in rat forebrain (mainly α4β2); assay: biochemical; conditions: Table 3; ratio of the corresponding Ki values
# Excerpt: as §1, §2, §3, §4, §5
# [4] = Table 5, *Rat forebrain, mainly α4β2, read-out: Ki α4β2*
# [5] = Table 5, rat nAChR subtypes, read-out: Ki α3β4
# [6] = Table 6, [3H]-EB 0.099 nM, 0.091 nM, ligand 0.00197-100 μM, n = 1, read-out: Ki α3β4
# [7] = Table 5, rat nAChR subtypes, read-out: Ki α4β4
# [8] = Table 6, [3H]-EB 0.099 nM, 0.091 nM, ligand 0.00197-100 μM, n = 1, read-out: Ki α4β4
# [9] = Table 5, rat nAChR subtypes, read-out: Ki α4β2
# [10] = Table 6, [3H]-EB 0.099 nM, 0.091 nM, ligand 0.00197-100 μM, n = 1, read-out: Ki α4β2
# [11] = Table 5, rat nAChR subtypes, read-out: Ki α2β4
# [12] = Table 6, [3H]-EB 0.099 nM, 0.091 nM, ligand 0.00197-100 μM, n = 1, read-out: Ki α2β4
# [13] = Table 5, rat nAChR subtypes, read-out: Ki α2β2
# [14] = Table 6, [3H]-EB 0.099 nM, 0.091 nM, ligand 0.00197-100 μM, n = 1, read-out: Ki α2β2
# [15] = Table 5, rat nAChR subtypes, read-out: Ki α3β2
# [16] = Table 6, [3H]-EB 0.099 nM, 0.091 nM, ligand 0.00197-100 μM, n = 1, read-out: Ki α3β2
# T2 sequence (P04757 26-499): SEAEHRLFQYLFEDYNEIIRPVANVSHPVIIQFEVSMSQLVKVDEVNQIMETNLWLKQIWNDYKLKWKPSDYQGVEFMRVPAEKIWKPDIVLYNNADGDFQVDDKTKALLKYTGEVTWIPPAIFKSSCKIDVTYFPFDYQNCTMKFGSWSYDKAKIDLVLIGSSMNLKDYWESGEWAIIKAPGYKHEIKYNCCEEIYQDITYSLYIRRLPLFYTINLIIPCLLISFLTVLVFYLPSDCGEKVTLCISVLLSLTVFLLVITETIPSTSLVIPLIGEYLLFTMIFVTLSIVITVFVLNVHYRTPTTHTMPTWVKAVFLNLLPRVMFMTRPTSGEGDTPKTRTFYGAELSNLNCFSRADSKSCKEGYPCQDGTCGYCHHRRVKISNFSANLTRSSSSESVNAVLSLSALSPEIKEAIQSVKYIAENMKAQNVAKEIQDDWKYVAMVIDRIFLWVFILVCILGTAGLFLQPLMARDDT
# T2 sequence (P12392 21-495): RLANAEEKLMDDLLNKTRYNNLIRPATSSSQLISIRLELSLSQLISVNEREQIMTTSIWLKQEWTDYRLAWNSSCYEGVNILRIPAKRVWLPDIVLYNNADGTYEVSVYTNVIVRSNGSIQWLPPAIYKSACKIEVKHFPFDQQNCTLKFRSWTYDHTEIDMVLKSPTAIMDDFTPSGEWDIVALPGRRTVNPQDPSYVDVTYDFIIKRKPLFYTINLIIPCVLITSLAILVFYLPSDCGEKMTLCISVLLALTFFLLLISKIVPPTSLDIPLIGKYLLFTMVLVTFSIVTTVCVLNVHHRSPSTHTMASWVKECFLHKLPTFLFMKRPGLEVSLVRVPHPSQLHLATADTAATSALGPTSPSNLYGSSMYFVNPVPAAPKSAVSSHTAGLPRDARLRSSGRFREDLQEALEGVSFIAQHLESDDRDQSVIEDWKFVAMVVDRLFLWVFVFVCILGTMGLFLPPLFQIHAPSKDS
# T1 sequence (P09483 31-630): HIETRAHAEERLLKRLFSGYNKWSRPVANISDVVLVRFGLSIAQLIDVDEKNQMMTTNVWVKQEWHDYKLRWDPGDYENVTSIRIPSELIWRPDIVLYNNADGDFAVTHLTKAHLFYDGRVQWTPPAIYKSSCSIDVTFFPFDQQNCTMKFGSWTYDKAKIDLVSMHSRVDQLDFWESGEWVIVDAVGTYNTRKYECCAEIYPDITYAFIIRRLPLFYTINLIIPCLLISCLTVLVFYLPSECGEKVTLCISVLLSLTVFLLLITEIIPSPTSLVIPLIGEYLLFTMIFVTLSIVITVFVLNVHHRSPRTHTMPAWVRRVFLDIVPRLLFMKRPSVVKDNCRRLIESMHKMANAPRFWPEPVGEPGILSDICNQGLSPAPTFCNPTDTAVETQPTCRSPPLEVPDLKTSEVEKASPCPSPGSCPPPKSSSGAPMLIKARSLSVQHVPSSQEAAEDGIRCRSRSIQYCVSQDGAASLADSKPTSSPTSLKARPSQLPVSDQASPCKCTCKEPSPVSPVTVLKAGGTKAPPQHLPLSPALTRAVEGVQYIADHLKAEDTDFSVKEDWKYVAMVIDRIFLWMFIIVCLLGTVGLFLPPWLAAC
# T1 sequence (P12390 25-500): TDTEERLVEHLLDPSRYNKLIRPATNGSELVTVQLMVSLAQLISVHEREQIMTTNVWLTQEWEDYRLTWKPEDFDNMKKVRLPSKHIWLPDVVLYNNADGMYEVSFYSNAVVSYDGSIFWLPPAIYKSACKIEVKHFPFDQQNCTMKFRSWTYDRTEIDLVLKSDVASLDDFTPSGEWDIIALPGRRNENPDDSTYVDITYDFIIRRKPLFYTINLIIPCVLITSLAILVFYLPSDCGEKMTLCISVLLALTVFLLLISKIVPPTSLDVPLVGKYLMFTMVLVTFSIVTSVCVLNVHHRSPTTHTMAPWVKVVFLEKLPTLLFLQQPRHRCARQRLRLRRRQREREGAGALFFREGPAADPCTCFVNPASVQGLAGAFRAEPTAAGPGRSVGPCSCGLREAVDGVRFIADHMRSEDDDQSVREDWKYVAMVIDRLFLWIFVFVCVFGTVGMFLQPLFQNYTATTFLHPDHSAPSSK
# T5 sequence (P12389 28-511): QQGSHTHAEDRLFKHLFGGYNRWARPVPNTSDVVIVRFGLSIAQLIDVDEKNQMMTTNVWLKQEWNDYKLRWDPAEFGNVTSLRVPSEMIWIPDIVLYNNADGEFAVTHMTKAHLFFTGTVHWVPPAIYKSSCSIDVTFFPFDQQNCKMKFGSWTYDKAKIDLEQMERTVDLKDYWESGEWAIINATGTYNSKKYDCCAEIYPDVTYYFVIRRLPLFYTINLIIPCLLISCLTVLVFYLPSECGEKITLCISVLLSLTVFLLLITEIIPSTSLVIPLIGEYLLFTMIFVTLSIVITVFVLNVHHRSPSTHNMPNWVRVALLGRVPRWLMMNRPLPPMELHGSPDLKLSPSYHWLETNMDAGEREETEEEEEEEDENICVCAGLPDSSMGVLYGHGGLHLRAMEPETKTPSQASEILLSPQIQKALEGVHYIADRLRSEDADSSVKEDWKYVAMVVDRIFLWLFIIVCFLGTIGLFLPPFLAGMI
# T5 sequence (P12392 21-495): as the sequence (P12392 21-495) above
# T4 sequence (P12390 25-500): as the sequence (P12390 25-500) above
# T4 sequence (P09483 31-630): as the sequence (P09483 31-630) above
# T7 sequence (P12390 25-500): as the sequence (P12390 25-500) above
# T7 sequence (P04757 26-499): as the sequence (P04757 26-499) above
# T6 sequence (P12390 25-500): as the sequence (P12390 25-500) above
# T6 sequence (P12389 28-511): as the sequence (P12389 28-511) above
# T3 sequence (P12392 21-495): as the sequence (P12392 21-495) above
# T3 sequence (P09483 31-630): as the sequence (P09483 31-630) above
Compound,Ki [1],"Ki [2, 4]",Ki (α3β4 nAChR subtype; [5]),Ki (α3β4 nAChR subtype; [6]),Ki (α4β4 nAChR subtype; [7]),Ki (α4β4 nAChR subtype; [8]),Ki (α4β2 nAChR subtype; [9]),Ki (α4β2 nAChR subtype; [10]),Ki (α2β4 nAChR subtype; [11]),Ki (α2β4 nAChR subtype; [12]),Ki (α2β2 nAChR subtype; [13]),Ki (α2β2 nAChR subtype; [14]),Ki (α3β2 nAChR subtype; [15]),Ki (α3β2 nAChR subtype; [16]),Affinity ratio (α3β4/Forbrain) [3],further results
"C#Cc1cncc(OC[C@@H]2CCCN2C)c1 [Ligand 18, 5-(1-Ethynyl)-3-(1-methyl-2(S)-pyrrolidinylmethoxy)pyridine]",3.65 nM,3.65 nM,3080 nM,3080 nM,473 nM,473 nM,1.02 nM,1.02 nM,434 nM,434 nM,0.75 nM,0.749 nM,10.7 nM,10.7 nM,–,–
"CN1CCC[C@H]1COc1cncc(C#CCCCCCCCCO)c1 [Ligand 17, 5-(10-Hydroxy-1-decynyl)-3-(1-methyl-2(S) -pyrrolidinylmethoxy)pyridine]",21.7 nM,21.7 nM,62700 nM,62700 nM,3560 nM,3560 nM,6.5 nM,6.5 nM,7800 nM,7800 nM,26.8 nM,26.8 nM,52.1 nM,52.1 nM,–,–
FCCCCC#Cc1cncc(OC[C@@H]2CCCN2)c1 [Ligand 42],–,–,–,–,–,–,–,–,–,–,–,–,–,–,"2,197","Ki ([2]; Table 3, mean of 3 independent measurements, read-out: Ki Forebrain): 3.45 nM; Ki (α3β4 nAChR subtype; Table 3, mean of 3 independent measurements, read-out: Ki α3β4): 7580 nM; Ki (α4β4 nAChR subtype; Table 3, mean of 3 independent measurements, read-out: Ki α4β4): 721 nM; affinities for α4β2 nAChR subtype (in words) (α4β2 nAChR subtype): subnanomolar; Ki (α4β2 nAChR subtype; Table 3, mean of 3 independent measurements, read-out: Ki α4β2): 0.907 nM; Ki (α2β4 nAChR subtype; Table 3, mean of 3 independent measurements, read-out: Ki α2β4): 680 nM; Ki (α2β2 nAChR subtype; Table 3, mean of 3 independent measurements, read-out: Ki α2β2): 3.5 nM; Ki (α3β2 nAChR subtype; Table 3, mean of 3 independent measurements, read-out: Ki α3β2): 5.27 nM"
"CN1CCC[C@H]1COc1cncc(C#CCCCCO)c1 [Ligand 16, 5-(6-Hydroxy-1-hexynyl)-3-(1-methyl-2(S) -pyrrolidinylmethoxy)pyridine]",3.56 nM,3.56 nM,40200 nM,40200 nM,1270 nM,1270 nM,0.81 nM,0.81 nM,3230 nM,3230 nM,2.87 nM,2.87 nM,12.6 nM,12.6 nM,–,–
OCCCCC#Cc1ccc(C2CC3CCC2N3)cn1 (stereo not drawn) [Ligand 34],–,–,–,–,–,–,–,–,–,–,–,–,–,–,2,"Ki ([2]; Ki Forebrain, Table 3, mean of 3 independent measurements): 52 nM; Ki (α3β4 nAChR subtype; Ki α3β4, Table 3, mean of 3 independent measurements): 95.4 nM; Ki (α4β4 nAChR subtype; Ki α4β4, Table 3, mean of 3 independent measurements): 61.8 nM; Ki (α4β2 nAChR subtype; Ki α4β2, Table 3, mean of 3 independent measurements): 67.7 nM; folds lower binding affinities than epibatidine at the nAChRs (α4β2 nAChR subtype; text b208): 200-1000 folds; subtype selectivity among the neuronal nAChRs (α4β2 nAChR subtype; text b208): less than 6 fold; Ki (α2β4 nAChR subtype; Ki α2β4, Table 3, mean of 3 independent measurements): 67.4 nM; Ki (α2β2 nAChR subtype; Ki α2β2, Table 3, mean of 3 independent measurements): 16.9 nM; Ki (α3β2 nAChR subtype; Ki α3β2, Table 3, mean of 3 independent measurements): 19.8 nM"
"CN1CCC[C@H]1COc1cncc(CCCCCCO)c1 [Ligand 19, 5-(6-Hydroxy-1-hexanyl)-3-(1-methyl-2(S) -pyrrolidinylmethoxy)pyridine]",5.39 nM,5.39 nM,20000 nM,20000 nM,968 nM,968 nM,0.75 nM,0.754 nM,1150 nM,1150 nM,3.33 nM,3.33 nM,13.4 nM,13.4 nM,–,–
OCCCCC#Cc1cncc(OC[C@@H]2CCN2)c1 [Ligand 26],–,–,–,–,–,–,–,–,–,–,–,–,–,–,"53,778","selectivity at α4β2 vs ganglionic α3β4 receptors (α4β2 nAChR subtype; text b206): 54,000 fold; more selective for α4β2 over α3β4 than the corresponding parent compounds 7, 8, and 2 (α4β2 nAChR subtype; text b210): 2 orders of magnitude"

# From patent US8030300B2, “Ligands for nicotinic acetylcholine receptors, and methods of making and using them” (priority 2003, dated 2011)
